Laboratory results published in patent US7700593B2, “Imidazo- and triazolo-pyridine compounds and methods of use thereof” (Amgen Inc., priority 2006, dated 2010).

Assays:
p38α = p38α (Homo sapiens, UniProt Q16539); test: p38 in-vitro HTRF enzyme assay; assay type: biochemical; details: IC50 value ranges
How it was run: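 Activated recombinant human p38α with ATP and 100 nM GST-ATF2-Avitag, 1 h at RT in Tris pH 7.5/MgCl2 buffer; compound 10-point 3-fold series from about 1 μM final. HTRF 665/620 nm ratio; IC50 from 4-parameter fit, Ki via Cheng-Prusoff with experimental ATP Km.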

THP1 cells = test: Lipopolysaccharide-activated THP1 cell TNF production assay; assay type: cell-based, human; details: Homo sapiens, THP-1; LPS-induced TNF-α production in THP1 cells
How it was run: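 THP1 cells at 1E6/mL were stimulated with LPS (1 μg/mL prepared stock) alongside 3-fold serially diluted compound for 3 h at 37 °C. Secreted TNF-α was quantified by electrochemiluminescence sandwich immunoassay. Percent of DMSO control was fitted to a 4-parameter logistic equation.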

monocytes = test: Lipopolysaccharide-activated monocyte TNF production assay (LPS induced TNF release); assay type: cell-based, human; details: Homo sapiens, Monocyte; LPS induced TNF release from monocytes; read-out: LPS induced TNFa
How it was run: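 Adherent monocytes from human PBMCs were pretreated with compound 60 min, then stimulated with E. coli LPS (30 ng/mL stock added) for 4 h at 37 °C. Supernatant TNF-α measured by sandwich ELISA; concentration giving 50% TNF reduction derived by polynomial fit.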

p38α, sequence (Q16539 whole entry): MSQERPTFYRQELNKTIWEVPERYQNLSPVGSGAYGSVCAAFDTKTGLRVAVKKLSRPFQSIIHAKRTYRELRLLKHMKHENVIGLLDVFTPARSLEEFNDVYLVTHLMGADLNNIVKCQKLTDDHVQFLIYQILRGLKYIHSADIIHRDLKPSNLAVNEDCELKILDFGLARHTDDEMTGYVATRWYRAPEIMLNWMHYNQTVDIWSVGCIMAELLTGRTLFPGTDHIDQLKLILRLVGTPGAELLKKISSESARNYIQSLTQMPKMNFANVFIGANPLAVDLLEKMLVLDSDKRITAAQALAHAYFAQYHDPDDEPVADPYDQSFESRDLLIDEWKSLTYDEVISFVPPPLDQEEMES

Structure (SMILES) | IC50 (p38α) | IC50 (THP1 cells) | IC50 (monocytes)
Cc1ccc(C(=O)Nc2ccnn2C)cc1-c1ccn2c(C(C)C)nnc2c1 [Example 28, 4-methyl-3-(3-(1-methylethyl)[1,2,4]triazolo[4,3-a]pyridin-7-yl)-N-(1-methyl-1H-pyrazol-5-yl)benzamide] | < 25 nM | 100 to 250 nM | 100 to 250 nM
Cc1ccc(C(=O)NC2CC2)cc1-c1ccn2c(-c3cccnc3)nnc2c1 [Example 29, N-cyclopropyl-4-methyl-3-(3-(3-pyridinyl)[1,2,4]triazolo[4,3-a]pyridin-7-yl)benzamide] | 100 to 250 nM | 100 to 250 nM | 100 to 250 nM
Cc1ccc(C(=O)Nc2ccnn2C)cc1-c1ccn2c(-c3ccccc3F)nnc2c1 [Example 30, 3-(3-(2-fluorophenyl)[1,2,4]triazolo[4,3-a]pyridin-7-yl)-4-methyl-N-(1-methyl-1H-pyrazol-5-yl)benzamide] | < 25 nM | 25 to 100 nM | 25 to 100 nM
Cc1ccc(C(=O)NC2CC2)cc1-c1ccn2c(CC(F)(F)F)nnc2c1 [Example 31, N-cyclopropyl-4-methyl-3-(3-(2,2,2-trifluoroethyl)[1,2,4]triazolo[4,3-a]pyridin-7-yl)benzamide] | 25 to 100 nM | 100 to 250 nM | 250 to 1000 nM
Cc1ccc(C(=O)NC2CC2)cc1-c1ccn2c(-c3ccccc3C)nnc2c1 [Example 32, N-cyclopropyl-4-methyl-3-(3-(2-methylphenyl)[1,2,4]triazolo[4,3-a]pyridin-7-yl)benzamide] | < 25 nM | 25 to 100 nM | 100 to 250 nM
Cc1ccc(C(=O)Nc2ccnn2C)cc1-c1ccn2c(-c3cccnc3C)nnc2c1 [Example 33, 4-methyl-N-(1-methyl-1H-pyrazol-5-yl)-3-(3-(2-methyl-3-pyridinyl)[1,2,4]triazolo[4,3-a]pyridin-7-yl)benzamide] | 25 to 100 nM | 100 to 250 nM | 250 to 1000 nM
Cc1ccc(C(=O)NC2CC2)cc1-c1ccn2c(-c3cccnc3C)nnc2c1 [Example 34, N-cyclopropyl-4-methyl-3-(3-(2-methyl-3-pyridinyl)[1,2,4]triazolo[4,3-a]pyridin-7-yl)benzamide] | 25 to 100 nM | 25 to 100 nM | 100 to 250 nM
Cc1ccc(C(=O)NC2CC2)cc1-c1cc2nnc(-c3ccccc3Cl)n2cc1C [Example 35, 3-(3-(2-chlorophenyl)-6-methyl[1,2,4]triazolo[4,3-a]pyridin-7-yl)-N-cyclopropyl-4-methylbenzamide] | < 25 nM | < 25 nM | 25 to 100 nM
Cc1ccc(C(=O)Nc2ccnn2C)cc1-c1cc2nnc(-c3ccccc3Cl)n2cc1C [Example 36, 3-(3-(2-chlorophenyl)-6-methyl[1,2,4]triazolo[4,3-a]pyridin-7-yl)-4-methyl-N-(1-methyl-1H-pyrazol-5-yl)benzamide] | < 25 nM | < 25 nM | 25 to 100 nM
Cc1ccc(C(=O)NC2CC2)cc1-c1ccn2c(-c3ccccc3)nnc2c1 [Example 37, N-cyclopropyl-4-methyl-3-(3-phenyl[1,2,4]triazolo[4,3-a]pyridin-7-yl)benzamide] | < 25 nM | 100 to 250 nM | 250 to 1000 nM
Cc1ccc(C(=O)NC2CC2)cc1-c1ccn2c(-c3cccc(F)c3Cl)nnc2c1 [Example 39, 3-(3-(2-chloro-3-fluorophenyl)[1,2,4]triazolo[4,3-a]pyridin-7-yl)-N-cyclopropyl-4-methylbenzamide] | < 25 nM | 25 to 100 nM | 100 to 250 nM
CNC(=O)c1ccc(C)c(-c2ccn3c(-c4ccccc4Cl)nnc3c2)c1 [Example 40, 3-(3-(2-chlorophenyl)[1,2,4]triazolo[4,3-a]pyridin-7-yl)-N,4-dimethylbenzamide] | 25 to 100 nM | 25 to 100 nM | 100 to 250 nM
Cc1ccc(C(=O)Nc2ccnn2C)cc1-c1ccn2c(-c3cccc(F)c3Cl)nnc2c1 [Example 41, 3-(3-(2-chloro-3-fluorophenyl)[1,2,4]triazolo[4,3-a]pyridin-7-yl)-4-methyl-N-(1-methyl-1H-pyrazol-5-yl)benzamide] | < 25 nM | < 25 nM | 25 to 100 nM
Cc1ccc(C(=O)NC2CC2)cc1-c1ccn2c(-c3ccc(F)cc3Cl)nnc2c1 [Example 42, 3-(3-(2-chloro-4-fluorophenyl)[1,2,4]triazolo[4,3-a]pyridin-7-yl)-N-cyclopropyl-4-methylbenzamide] | < 25 nM | 25 to 100 nM | 100 to 250 nM
Cc1ccc(C(=O)NC(C)C)cc1-c1ccn2c(-c3ccccc3Cl)nnc2c1 [Example 43, 3-(3-(2-chlorophenyl)[1,2,4]triazolo[4,3-a]pyridin-7-yl)-4-methyl-N-(1-methylethyl)benzamide] | 25 to 100 nM | 100 to 250 nM | 250 to 1000 nM
Cc1ccc(C(N)=O)cc1-c1ccn2c(-c3ccccc3Cl)nnc2c1 [Example 44, 3-(3-(2-chlorophenyl)[1,2,4]triazolo[4,3-a]pyridin-7-yl)-4-methylbenzamide] | < 25 nM | 25 to 100 nM | 100 to 250 nM
Cc1ccc(C(=O)Nc2ccnn2C)cc1-c1ccn2c(-c3ccc(F)cc3Cl)nnc2c1 [Example 45, 3-(3-(2-chloro-4-fluorophenyl)[1,2,4]triazolo[4,3-a]pyridin-7-yl)-4-methyl-N-(1-methyl-1H-pyrazol-5-yl)benzamide] | < 25 nM | < 25 nM | 100 to 250 nM
Cc1ccc(C(=O)NC2CC2)cc1-c1ccn2c(-c3cc(F)ccc3Cl)nnc2c1 [Example 46, 3-(3-(2-chloro-5-fluorophenyl)[1,2,4]triazolo[4,3-a]pyridin-7-yl)-N-cyclopropyl-4-methylbenzamide] | < 25 nM | < 25 nM | 25 to 100 nM
Cc1ccc(C(=O)Nc2ccnn2C)cc1-c1ccn2c(-c3cc(F)ccc3Cl)nnc2c1 [Example 47, 3-(3-(2-chloro-5-fluorophenyl)[1,2,4]triazolo[4,3-a]pyridin-7-yl)-4-methyl-N-(1-methyl-1H-pyrazol-5-yl)benzamide] | < 25 nM | < 25 nM | 25 to 100 nM
Cc1ccc(C(=O)NC2CC2)cc1-c1ccn2c(-c3cc(F)c(F)cc3Cl)nnc2c1 [Example 48, 3-(3-(2-chloro-4,5-difluorophenyl)[1,2,4]triazolo[4,3-a]pyridin-7-yl)-N-cyclopropyl-4-methylbenzamide] | < 25 nM | 100 to 250 nM | 100 to 250 nM
Cc1ccc(C(=O)Nc2ccnn2C)cc1-c1ccn2c(-c3cc(F)c(F)cc3Cl)nnc2c1 [Example 49, 3-(3-(2-chloro-4,5-difluorophenyl)[1,2,4]triazolo[4,3-a]pyridin-7-yl)-4-methyl-N-(1-methyl-1H-pyrazol-5-yl)benzamide] | < 25 nM | 25 to 100 nM | 25 to 100 nM
Cc1c(F)cc(C(=O)NC2CC2)cc1-c1ccn2c(C(C)(C)C)nnc2c1 [Example 50, N-cyclopropyl-3-(3-(1,1-dimethylethyl)[1,2,4]triazolo[4,3-a]pyridin-7-yl)-5-fluoro-4-methylbenzamide] | < 25 nM | < 25 nM | < 25 nM
Cc1c(F)cc(C(=O)NC2CC2)cc1-c1ccn2c(-c3ccccc3Cl)nnc2c1 [Example 51, 3-(3-(2-chlorophenyl)[1,2,4]triazolo[4,3-a]pyridin-7-yl)-N-cyclopropyl-5-fluoro-4-methylbenzamide] | < 25 nM | < 25 nM | 25 to 100 nM
CCNC(=O)c1ccc(C)c(-c2ccn3c(-c4ccccc4Cl)nnc3c2)c1 [Example 52, 3-(3-(2-chlorophenyl)[1,2,4]triazolo[4,3-a]pyridin-7-yl)-N-ethyl-4-methylbenzamide] | < 25 nM | 100 to 250 nM | 100 to 250 nM
Cc1ccc(C(=O)NC2CC2)cc1-c1ccn2c(-c3sccc3C)nnc2c1 [Example 53, N-cyclopropyl-4-methyl-3-(3-(3-methyl-2-thienyl)[1,2,4]triazolo[4,3-a]pyridin-7-yl)benzamide] | < 25 nM | 25 to 100 nM | 25 to 100 nM
Cc1ccc(C(=O)Nc2ccnn2C)cc1-c1ccn2c(-c3sccc3C)nnc2c1 [Example 54, 4-methyl-N-(1-methyl-1H-pyrazol-5-yl)-3-(3-(3-methyl-2-thienyl)[1,2,4]triazolo[4,3-a]pyridin-7-yl)benzamide] | < 25 nM | < 25 nM | 25 to 100 nM
Cc1ccc(C(=O)NC2CC2)cc1-c1ccn2c(-c3sccc3Cl)nnc2c1 [Example 55, 3-(3-(3-chloro-2-thienyl)[1,2,4]triazolo[4,3-a]pyridin-7-yl)-N-cyclopropyl-4-methylbenzamide] | < 25 nM | < 25 nM | 25 to 100 nM
Cc1c(F)cc(C(=O)NC2CC2)cc1-c1ccn2c(-c3c(F)cccc3Cl)nnc2c1 [Example 56, 3-(3-(2-chloro-6-fluorophenyl)[1,2,4]triazolo[4,3-a]pyridin-7-yl)-N-cyclopropyl-5-fluoro-4-methylbenzamide] | < 25 nM | < 25 nM | < 25 nM
Cc1ccc(C(=O)NC2CC2)cc1-c1ccn2c(-c3ocnc3C)nnc2c1 [Example 57, N-cyclopropyl-4-methyl-3-(3-(4-methyl-1,3-oxazol-5-yl)[1,2,4]triazolo[4,3-a]pyridin-7-yl)benzamide] | 25 to 100 nM | 250 to 1000 nM | 250 to 1000 nM
